Here are results for one molecule from patent publication US20220378854A1, “COMPOSITION FOR PREVENTING, TREATING, OR IMPROVING GASTROINTESTINAL DISEASES COMPRISING STRAIN OF GENUS CORYNEBACTERIUM AND CULTURE THEREOF” (CJ CheilJedang Corporation, priority 2019, published 2022).

The test system of assay [1] is WIRS rats. As to the kind of experiment: mRNA expression of inflammation mediators and PDGF in WIRS rats. The class given is in vivo, rat. To be noted: oral 8 hours before WIRS; L-Thr 0.15% by weight/diet; WIRS 6 hours. As to the method:
(§1) They were divided into a untreated group in which nothing was treated after oral administration of saline solution ([…], animal experimental group 1), WIRS Group in which WIRS was applied for 6 hours ([…], animal experimental group 2), and animal experimental groups in which feed containing Sample 1 (prepared in Example 8) of 0.15% by weight (animal experimental group 3) and feed containing Sample 3 (prepared in Example 8) of 0.21% by weight (animal experimental group 4) were orally treated by 30 mg/kg body, respectively, 8 hours before WIRS treatment. The content of L-Thr (L-threonine) in the feed of the animal experimental groups 3 and 4 was set to 0.15% by weight/diet equally.
Since SRMD was physiologically related to ischemic-reperfusion damage, in the animal experimental groups 1 to 4, mRNA expression of angiogenesis growth factors including PDGF (platelet-derived growth factor) and mRNA expression of inflammation mediators, iNOS, TNF-α, IFN-γ, and PDGF were measured, and the result was shown in FIG. 8a and FIG. 8b.
Specifically, the total RNA was extracted using RNeasy Mini kit (Qiagen Korea, Seoul, Korea). Amplification was analyzed using 10× reaction buffer (Promega Korea, Seoul, Korea), 1.5 mM/L MgCl2, […] deoxynucleotide triphosphate (dNTP), each primer […], and Taq DNA polymerase (Promega) 2.5 unit, using Perkin-Elmer GeneAmp PCR System 2400. Each cycle was composed of denaturation at 95° C. for 1 minute, annealing at 55° C. for […], and amplification at 72° C. for 45 seconds.

Assay [2] relates to WIRS rats. Briefly: apoptosis on the gastric mucosa of WIRS rats (TUNEL, apoptotic index). The class given is in vivo, rat. The conditions noted are these: oral 8 hours before WIRS; WIRS 6 hours. As to the method: as §1
Specifically, apoptosis was visualized using TdT FragEL DNA fragmentation detection kit (Oncogene Research Products, Cambridge, Mass.) and TUNEL (Terminal deoxynucleotidyl transferase-mediated nick end labeling) method. To measure AI (apoptotic index) by finding a region in which apoptosis occurs in a large quantity (apoptotic hot spot) in each experimental group, TUNEL-immunostained section (terminal deoxynucleotidyl transferase mediated dUTP nick-end labeling (TUNEL)-immunostained section) was enlarged 100 folds and scanned. Then, the number of TUNEL-positive cells was counted in 400 fields to record AI. […]

Assay [3] has as its system WIRS rats. Briefly: mucin content in stomach tissue of WIRS rats by PAS staining. In kind it is in vivo, rat. The conditions noted are these: oral 8 hours before WIRS, WIRS 6 hours. The protocol: as §1
In the stomach tissue of the animal experimental groups 1 to 4, the mucin content was confirmed by PAS staining, and the result was shown in FIG. 10.

Assay [4] deals with WIRS rats. Briefly: WIRS rat model, stomach observed by naked eyes (gastrorrhagia). In kind it is in vivo. The conditions noted are these: oral, 8 hours before WIRS; same threonine 0.15% by weight/diet; WIRS 6 hours. The protocol:
(§2) 110 SD rats in total were purchased from Charles River (Osaka, Japan) and stored in an animal facility. The experimental animals were handled in the authorized animal facility according to AAALAC International Animal Care Policies. The animals were fasted 24 hours prior to be exposed to WIRS, and water was freely available. 10 rats of each group were placed in a cage for WIRS and immersed in water for 6 hours.
Sample 1 to Sample 5 prepared in Example 8 were orally administered to rats 8 hours before WIRS treatment, so that the same amount of threonine was administered (0.15% by weight/diet), and after applying WIRS for 6 hours, the animals were sacrificed and the stomach was extracted and incised and contents were removed, and a picture of the inner surface of the stomach was taken and this was shown in FIG. 11.

The test system of assay [5] is WIRS rats. Briefly: apoptosis proteins in WIRS rats (western blot). The class given is in vivo, rat. To be noted: oral 8 hours before WIRS; WIRS 6 hours. As to the method: as §1
In addition, in each of the animal experimental groups 1-4, the protein level of p-IκBα, p-ERK, and p-JNK was measured and shown in FIG. 8c and FIG. 8d. Specifically, to perform western blot for measuring the protein level, the collected gastric mucosa was homogenized in ice-cold 20 mM Tris-HCl buffer (pH 7.5) containing 2 mM EDTA (ethylenediaminetetraacetic acid), 0.5 mM EGTA (ethylene glycol tetraacetic acid), 300 mM sucrose, and 2 mM PMSF (phenylmethylsulfonyl fluoride) with a tissue homogenator. After electrophoresis of protein of 30 μg in 8% SDS-PAGE (sodium dodecyl sulfate-polyacrylamide gel electrophoresis) gel, it was transferred to PVDF (polyvinylidene fluoride) membrane using a semidry transfer system (Hoefer, Holliston, Mass., USA). Non-specific binding was blocked by incubation with 5% non-fat dry milk. The membrane was thermostatically incubated with a 500-fold diluted solution of a primary antibody at 4° C. overnight, and then incubated with an HRP (horseradish peroxidase) binding-secondary antibody diluted by 1:1000. The immune complex was detected using ECL detection kit (Amersham Biosciences Korea, Seoul, Korea) and X-ray film was automatically irradiated. Antibodies used for western blot were as follows. β-actin, iNOS (nitric oxide synthase), COX-2 (cyclooxygenase), P-JNK (phosphor-JNK), P-ERK (phosphor-ERK), Bcl-2 (B-cell lymphoma 2), Bax (B-cell lymphoma-2-associated X-protein), and cyclin D1 antibodies were purchased from Santa Cruz Biotechnology (Santa Cruz, Calif.). p-IκBα (phosphorylated inhibitor of kappa B alpha), p-STAT3 (phosphorylated signal transducer and activator of transcription 3), PARP (poly(ADP-ribose) polymerase), CDK4 (cyclin-dependent kinase 4), and CDK2 (cyclin dependent kinase 2) were purchased from Cell Signaling Technology (Beverly, Mass.). HO-1 (A heme oxygenase-1) antibody was purchased from Enzo life Sciences (Farmingdale, N.Y.). […]
(Immunoblotting shows a protein as a band on a membrane.)

Assay [6] has as its system WIRS rats. As to the kind of experiment: p-IκBα, p-ERK, p-JNK protein level in gastric mucosa of WIRS rats (western blot). In kind it is in vivo, rat. The conditions noted are these: oral 8 hours before WIRS, WIRS 6 hours. The protocol:
as §1
(§3) In addition, in each of the animal experimental groups 1-4, the protein level of p-IκBα, p-ERK, and p-JNK was measured and shown in FIG. 8c and FIG. 8d. Specifically, to perform western blot for measuring the protein level, the collected gastric mucosa was homogenized in ice-cold 20 mM Tris-HCl buffer (pH 7.5) containing 2 mM EDTA (ethylenediaminetetraacetic acid), 0.5 mM EGTA (ethylene glycol tetraacetic acid), 300 mM sucrose, and 2 mM PMSF (phenylmethylsulfonyl fluoride) with a tissue homogenator. […] The immune complex was detected using ECL detection kit (Amersham Biosciences Korea, Seoul, Korea) and X-ray film was automatically irradiated. […]

Assay [7] concerns WIRS rats. As to the kind of experiment: SRMD improving efficacy in WIRS rats (gross lesion index, pathologic scores). In kind it is in vivo, rat. To be noted: oral 8 hours before WIRS; L-Thr 0.15% by weight/diet; WIRS 6 hours. The protocol: as §2, §1
All experimental animals (rat) were sacrificed with a high dose of anesthetic (thiopental sodium, 50 mg/kg) after 6 hours of WIRS. The animal experimental groups 1-4 disclosed in the following Examples 10 to 12 mean the animal experimental groups 1-4 of the Table 5, and in FIG. 7a to FIG. 10, Groups 1-4 mean the animal experimental groups 1-4 of Table 5.
The stomach of the rat sacrificed in Example 9 was incised and opened along the larger curvature, and then washed with cold PBS solution. After determining the number and size of erosions or ulcers by enlarged photographs, the half was anatomized for anatomical observation. The incised stomach was spread over plastic sheet and fixed in 10% buffer formalin for 4 hours and used for production of a paraffin tissue slide, and the other half was stored in a liquid nitrogen tank for molecular biological observation. In addition, the mucosal homogenate was stored by mixing the same animal experimental groups.
The stomach sample was observed using […] naked eyes (FIG. 7a), and in the control group and each experimental group (animal experimental groups 1-4), gross lesion index, inflammation; pathologic score, ulcer/erosion; pathologic score, regeneration; pathologic score were calculated and shown in FIG. 7b.

The subject of assay [8] is WIRS rats. Briefly: CDK4 and Cyclin D1 protein in WIRS rats. In kind it is in vivo, rat. To be noted: oral 8 hours before WIRS; WIRS 6 hours. As to the method:
as §1, §3

For `C[C@@H](O)[C@H](N)C(=O)O` [Sample 1, threonine], in the assay with WIRS rats [1], the “IFN-γ mRNA expression” value is on record as “significantly reduced”, the “PDGF mRNA expression” value is recorded as “significantly reduced”, the “TNF-α mRNA expression” value is “significantly reduced” and the “iNOS mRNA expression” value is “significantly reduced”. In the assay on WIRS rats [2], the “apoptosis level on the gastric mucosa (TUNEL)” value is “significantly reduced”. Further, the “gastric mucin / mucus expression (PAS staining)” value in the assay on WIRS rats [3] is “significantly preserved”. Also, the “degree of gastrorrhagia reduced (therapeutic effect of gastric ulcer), rank order” value in the assay on WIRS rats [4] is “Sample 1<Sample 5<Sample 4<Sample 3 or Sample 2”. In the assay with WIRS rats [5], the Bax expression entry is reported as “significantly reduced”, the PARP division entry was “significantly reduced”, the “cleaved caspase-3 expression” value is on record as “significantly reduced” and the “cleaved caspase-8 expression” value is reported as “significantly reduced”. Moreover, in the assay on WIRS rats [6], the “p-ERK activation (signaling)” value is reported as “partially inactivated” and the “p-JNK activation (signaling)” value is given as “partially inactivated”. Further, in the assay on WIRS rats [7], the “SRMD (erosions, hemorrhage, ulcers), stomach observation” value is given as “significantly improved”; the gross lesion index entry is “significantly (p<0.05) improved”; the “inflammation; pathologic score” value is recorded as “significantly (p<0.05) improved”; the “regeneration; pathologic score” value is listed as “significantly (p<0.05) improved”. For the same molecule, in the assay on WIRS rats [7], the “ulcer/erosion; pathologic score” value was “significantly (p<0.05) improved”. Also, in the assay on WIRS rats [8], the “expression of CDK4” value is “significantly reduced” and the “expression of Cyclin D1” value is listed as “significantly reduced”.
